Measured values: US20190255087A1, “ENCAPSULATION AND HIGH LOADING EFFICIENCY OF PHOSPHORYLATED DRUG AND IMAGING AGENTS IN NANOPARTICLES” (THE PENN STATE RESEARCH FOUNDATION, priority 2016, published 2019)
Values joined by “and” are separate entries in the source; they are usually repeats but may differ in a detail not shown here. Equal values may be shown once.

What was measured:
[1] = Encapsulated drug concentration and encapsulation efficiency (EE) in Cit-X-CPSNPs by LC-MS/MS; assay type: physicochemical; details: for Drug concentration (M) / EE (mol %): citrate-functionalized CPSNPs, weighted mean ± 95% confidence interval, n = 4-6 replicates
Experimental: The encapsulation efficiencies (EE) in Table 1 was experimentally determined by LC-MS/MS for 5FU, 5FU:ATP, FUdR, FdUMP, Gem, and GemMP, as drawn in FIG. 2 1. The EE is defined by the following equation,
(§1) where mi was the total drug content in moles and mf was the moles encapsulated as assessed by LC-MS/MS. Particles were diluted in 10% methanol with 0.1% formic acid and 5-CU was spiked in as an internal standard. Chromatography was done on a 2.1 mm×10 cm HSS T3 or C18 CSH column (Waters) on a Waters I-class FTN chromatography system with the column temperature at 40° C. Mobile phase A was water with 5 mM ammonium acetate and B was methanol. The flow rate was 0.5 mL/min and the chromatography consisted of holding at 7.5% B for 1 min, increasing to 95% B over 0.5 min, holding at 95% B for 0.5 min before equilibration to starting conditions. Eluate was analyzed by an inline Waters TQ-S mass spectrometer. The capillary was set at 1.0 kV, source temperature at 150° C., desolvation temperature at 600° C., cone gas at 150 L/hr, and desolvation gas flow at 1200 L/hr. Multiple reaction monitoring (MRM) was used to detect 5-CU, FdUMP, Gem, and GemMP. The MRM transition used for 5-CU was 145 >42 with the collision energy set at 12. The MRM transition used for drug agents was 325 >195 with the collision energy set at 12. Drug concentrations were determined using TargetLynx version 4.1 (Waters) using an external calibration curve with 1/x weighting.
as §1, with “Particles” for “where mi was the total drug content in moles and mf was the moles encapsulated as assessed by LC-MS/MS. Particles”, “5-CU” for “5-CU, FdUMP, Gem,”, “FdUMP.” for “GemMP.”, “FdUMP” for “drug agents”, “FdUMP” for “Drug”

BxPC-3 = test: Cell proliferation assay (alamarBlue); assay type: cell-based, human; details: for Decrease of BxPC-3 proliferation: 200 μM free drug; for EC50 of free drug, BxPC-3: in words
From the text: (§2) CPSNPs in 70/30 ethanol/water suspensions were completely dried under pre-purified argon and reconstituted in sterile 1×PBS without calcium or magnesium.
(§3) BxPC-3 and Panc-1 were obtained from ATCC. RLT-PSC pancreatic stellate cells were a gift from Professor Ralf Jesenofsky, University of Heidelberg, and H6c7, immortalized human pancreatic ductal epithelial cells, were a gift of Dr. Ming-Sound Tsao, University of Toronto. H6c7 cells have a near normal genotype with wild type p53 and KRAS genes. Cells were cultured in the appropriate media as follows: Dulbecco's modified Eagle medium with 10% FBS for PANC-1 and RLT-PSC, RPMI 1640 with 10% FBS for BxPC-3, and complete keratinocyte basal medium (KBM), containing growth factors, hormones and bovine pituitary extract for H6c7 cells (Invitrogen).
(§4) PANC-1, BxPC-3, RLT-PSC and H6c7 cells were seeded into 96 well plates at 5,000 cells per well. At 24 hours post seeding, media only/no treatment (NT), vehicle (lx sterile PBS without calcium and magnesium), 5FU and FdUMP treatments were initiated and viable cells determinations were made at 24, 48 or 72 hr post-treatment using an alamarBlue® assay (Life Technologies). Data were normalized to vehicle treatments for all time points.
as §4, with “CPSNPs in 70/30 ethanol/water suspensions were completely dried under pre-purified argon and reconstituted in sterile 1×PBS without calcium or magnesium. PANC-1,” for “PANC-1,”, “(1×” for “(lx”
(§5) Results were expressed as means±standard error. Student t-tests were used to evaluate statistical significance with a p<0.05 considered to be significant. To calculate EC50±95% CI, nonlinear regression analysis was performed to generate the curve of best fit for the data according to a Sigmoidal regression using a 4-parameter logistic curve calibration [Y=Yo+(a/(1+((X/Xo)^b))] in SigmaPlot 12 (Systat, Inc.).

PANC-1 [2] = test: Cell proliferation assay (alamarBlue); assay type: cell-based, human; details: for EC50 of free drug, PANC-1: in words
From the text: as §2, §3, §4
as §4, with “CPSNPs in 70/30 ethanol/water suspensions were completely dried under pre-purified argon and reconstituted in sterile 1×PBS without calcium or magnesium. PANC-1,” for “PANC-1,”, “(1×” for “(lx”
as §5

PANC-1 [3] = test: Cell cycle analysis by propidium iodide flow cytometry; assay type: cell-based, human; details: PANC-1, 72 hr, 250 μM
Experimental: (§6) For determination of nuclear DNA content, PANC-1 treatments included NT, vehicle (1× sterile calcium- and magnesium-free PBS), 250 μM free FdUMP, Ghost-CPSNPs, or 200 nM FdUMP-CPSNPs. After 72 hours of treatment, cells were fixed in 75% ethanol overnight. Immediately prior to analysis, cells were treated with 1 μg/mL of RNase A and stained with 50 μg/mL of propidium iodide, which is taken up by double-stranded DNA. DNA content was determined using a FACSCalibur flow cytometer (BD Biosciences), and data were analyzed with Cellquest (Verity Software).
as §6, with “FdUMP, ghost-CPSNPs,” for “FdUMP, Ghost-CPSNPs,”, “50 µg/mL” for “50 μg/mL”

[4] = biological target: T1, thymidylate synthase (TS) (Homo sapiens, UniProt P04818); test: Thymidylate synthase immunoblotting, PANC-1 cells; assay type: cell-based; parameters: endogenous in cells; host or cells: PANC-1 (ATCC); details: 250 μM free FdUMP
Experimental: Thus in the presence of folate, TS dimers and FdUMP create an irreversibly inactivated enzyme:drug complex.^59 Experimentally, the inhibition of TS activity by FdUMP can be detected by the presence of this stable ternary complex.
PANC-1 cells were incubated for 24 hours in the following treatment groups: NT, vehicle, 250 μM free FdUMP, 200 nM FdUMP-CPSNPs, and Ghost-CPSNPs in PBS. Lysates were collected by aspirating the media, washing with 1×PBS, and adding RIPA buffer containing Complete Mini protease cocktail (Roche). Lysates were spun to remove debris and the supernatants frozen at −80° C. Protein concentration was determined by micro BCA protein assay (Thermo Scientific) and 20 μg of protein separated by gel electrophoresis. After transfer to HyBond ECL and blocking for 1 hr in 5% BSA, blots were probed overnight with anti-TS antibody (1:1000, D5B3, #9045 Cell Signaling). Blots were washed, probed with anti-rabbit-HRP secondary antibody for 1 hour and developed with Pierce Pico (Thermo Scientific). Quantitation of scanned blots was done using Image J software.
PANC-1 cells were incubated for 24 hours in the following treatment groups: NT, vehicle, 250 μM free FdUMP, 200 nM FdUMP-CPSNPs, and ghost-CPSNPs in PBS. […] Lysates were spun to remove debris and the supernatants frozen at −80° C. […] Quantitation of scanned blots was done using Image J software.

[5] = biological target: T1, thymidylate synthase (TS); test: Thymidylate synthase immunoblotting, BxPC-3 cells; assay type: cell-based; parameters: PANC-1 cells were incubated for 24 hours in the following treatment groups; endogenous in cells; details: 250 μM free FdUMP
[6] = in vivo; cited from earlier work

T1 sequence (P04818 2-313 limits assumed): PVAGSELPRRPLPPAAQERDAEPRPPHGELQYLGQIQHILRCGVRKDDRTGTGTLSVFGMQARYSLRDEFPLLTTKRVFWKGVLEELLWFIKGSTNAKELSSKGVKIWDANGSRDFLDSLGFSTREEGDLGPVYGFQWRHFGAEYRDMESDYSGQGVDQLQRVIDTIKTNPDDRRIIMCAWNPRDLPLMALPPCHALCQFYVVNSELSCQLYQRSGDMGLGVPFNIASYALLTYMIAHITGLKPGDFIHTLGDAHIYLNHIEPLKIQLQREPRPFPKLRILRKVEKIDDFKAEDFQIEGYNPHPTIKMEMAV

Row | EE, range over replicated formulations ([1]; Cit-X-CPSNPs) | Drug concentration (M) [1] | EE (mol %) [1] | EC50 of free drug, BxPC-3 (BxPC-3) | EC50 of free drug, PANC-1 (PANC-1 [2]) | Molecule | Encapsulated drug concentration, range over replicated formulations ([1]; Cit-X-CPSNPs) [µM] | Decrease of BxPC-3 proliferation (BxPC-3) | Reduction of PANC-1 proliferation (PANC-1 [2]; 200 μM free drug) | % Cells in G2/M (PANC-1 [3]) [%] | % Cells in G1/G0 (PANC-1 [3]; listed as free FdUMP) | % Cells in S (PANC-1 [3]; listed as free FdUMP) | TS in inactive ternary complex (inhibition), PANC-1 [4] [%] | TS in inactive ternary complex (inhibition), BxPC-3 [5] [%] | Fraction of 5FU catabolized to 5-fluorodihydrouracil by DPD [6] | Fraction of 5FU pro-drug activated to FdUMP [6]
1 |  | 1.9 (±0.6)×10^−9 M | < 0.01 mol % |  |  | Nc1ccn([C@@H]2O[C@H](CO)[C@@H](O)C2(F)F)c(=O)n1 [Gem, 2′,2′-difluorodeoxycytidine] |  |  |  |  |  |  |  |  |  | 
2 | 15-30 mol % | 2.3 (±0.4)×10^−5 M | 22 (±6) mol % | nM range | nM range | gemcitabine monophosphate [GemMP] |  |  |  |  |  |  |  |  |  | 

Second part, the molecule before the results:

Row | Molecule | EE, range over replicated formulations ([1]; Cit-X-CPSNPs) | Drug concentration (M) [1] | EE (mol %) [1] | EC50 of free drug, BxPC-3 (BxPC-3) | EC50 of free drug, PANC-1 (PANC-1 [2]) | Encapsulated drug concentration, range over replicated formulations ([1]; Cit-X-CPSNPs) [µM] | Decrease of BxPC-3 proliferation (BxPC-3) | Reduction of PANC-1 proliferation (PANC-1 [2]; 200 μM free drug) | % Cells in G2/M (PANC-1 [3]) [%] | % Cells in G1/G0 (PANC-1 [3]; listed as free FdUMP) | % Cells in S (PANC-1 [3]; listed as free FdUMP) | TS in inactive ternary complex (inhibition), PANC-1 [4] [%] | TS in inactive ternary complex (inhibition), BxPC-3 [5] [%] | Fraction of 5FU catabolized to 5-fluorodihydrouracil by DPD [6] | Fraction of 5FU pro-drug activated to FdUMP [6]
3 | O=c1[nH]c(=O)n([C@H]2C[C@H](O)[C@@H](CO)O2)cc1F [FUdR, 5-fluoro-2′-deoxyuridine] | < 0.01 mol % | 2.8 (±1.2)×10^−8 M | < 0.01 mol % |  |  |  |  |  |  |  |  |  |  |  | 
4 | O=c1[nH]c(=O)n([C@H]2C[C@H](O)[C@@H](COP(=O)(O)O)O2)cc1F [FdUMP, 5-fluoro-2′-deoxyuridine 5′-monophosphate] | 7-97 mol % | 3.0 (±1.4)×10^−4 M | 41 (±16) mol % | low uM | low uM | 60 to 830 | equally effective | twice as effective as free 5FU | 23.5 ± 6.3 | 20% and 20.3 ± 3.0% | 56% and 56.3 ± 10.3% | 80 | 90 |  | 
5 | O=c1[nH]cc(F)c(=O)[nH]1 [Formulation 5FU, 5-fluorouracil] |  | 4.1 (±1.8)×10^−7 M | 0.11 (±0.04) mol % | low uM | low uM |  | equally effective |  |  |  |  |  |  | more than 80% | less than 20%
